Here are results for one compound from ChEMBL document CHEMBL3877316, “Synthesis of pharmacologically important naphthoquinones and anticancer activity of 2-benzyllawsone through DNA topoisomerase-II inhibition” (Bioorg Med Chem, 2017).

The subject of series [1] is Mus musculus. As to the kind of experiment: Acute toxicity in Swiss albino mouse assessed as serum albumin level at 1000 mg/kg, po qd administered as single dose for 7 days (reference value: 2.49 +/- 0.17 g/dl). As to conditions: in vivo, 168 h. It counts as organism-based.
Series [2] concerns Mus musculus. As to the kind of experiment: Acute toxicity in Swiss albino mouse assessed as serum cholesterol level at 5 mg/kg, po qd administered as single dose for 7 days (reference value: 68.37 +/- 4.42 mg/dl). It counts as organism-based. As to conditions: in vivo, 168 h.
The test system of series [3] is Mus musculus. Kind of series: Acute toxicity in Swiss albino mouse assessed as serum SGPT level at 300 mg/kg, po qd administered as single dose for 7 days (reference value: 23.06 +/- 1.92 U/L). It counts as organism-based. As to conditions: in vivo, 168 h.
A short description of series [4]: Antiproliferative activity against HEK293 cells after 48 hrs by SRB assay. The format is cell-based. The conditions noted are these: Homo sapiens, HEK293, 48 h. For orientation: Sulforhodamine B stains cellular protein and so reports cell mass.
For series [5], the system named is Mus musculus. As to the kind of experiment: Acute toxicity in Swiss albino mouse assessed as effect on eosinophil count up to 1000 mg/kg, po qd administered as single dose for 7 days. The format is organism-based. The conditions noted are these: in vivo, 168 h.
Series [6] relates to Mus musculus. Kind of series: Acute toxicity in Swiss albino mouse assessed as changes in absolute weight of lungs up to 1000 mg/kg, po qd administered as single dose for 7 days. As to conditions: in vivo, 168 h. It counts as organism-based.
In series [7] the test system is Mus musculus. As to the kind of experiment: Acute toxicity in Swiss albino mouse assessed as changes in relative weight of lungs up to 1000 mg/kg, po qd administered as single dose for 7 days. It counts as organism-based. As to conditions: in vivo, 168 h.

The structures appear in SMILES notation.

As for `O=C1C=C(OCc2ccccc2)C(=O)c2ccccc21`, the Activity in the series on Mus musculus [1] is 2.88 g/dL; in the series with Mus musculus [2], 65.28 mg/dL; in the series with Mus musculus [3] it was 20.48 U/L; with Mus musculus [5], “Non-Toxic”; in the series with Mus musculus [6], “Non-Toxic”; in the series on Mus musculus [7], “Non-Toxic”. Further, the IC50 (as a rule, the concentration that gives 50% inhibition) in series [4] was above 150 µM.
